Measured values reported in the kinase profiling compilation of Christmann-Franck et al. (2016).
Several values for one entry are separate records, joined by “and”; a condition that tells them apart may be missing. Identical values can stand only once.

Experiments:
Experiment in all cases: radiometric filter-binding kinase assay, Kinase HotSpot
Details in all cases: compound 0.5 µM; ATP 10 µM
SIK2 (human) = SIK2 (human) (UniProt Q9H0K1)
TAOK1 (human) = TAOK1 (human) (UniProt Q7L7X3)
MARK4 (human) = MARK4 (human) (UniProt Q96L34)
BRSK1 (human) = BRSK1 (human) (UniProt Q8TDC3)
HIPK1 (human) = HIPK1 (human) (UniProt Q86Z02)
PIM1 (human) = PIM1 (human) (UniProt P11309)
OXSR1 (human) = OXSR1 (human) (UniProt O95747)
MAP2K1 (human) = MAP2K1 (human) (UniProt Q02750)
NEK6 (human) = NEK6 (human) (UniProt Q9HC98)
CDK5 CDK5R1 p25 (human) = CDK5 CDK5R1 p25 (human) (UniProt Q00535+Q15078)
SGK2 (human) = SGK2 (human) (UniProt Q9HBY8)
PTK2B (human) = PTK2B (human) (UniProt Q14289)
ITK (human) = ITK (human) (UniProt Q08881)
EPHB3 (human) = EPHB3 (human) (UniProt P54753)
ACVRL1 (human) = ACVRL1 (human) (UniProt P37023)
CAMKK2 (human) = CAMKK2 (human) (UniProt Q96RR4)
MAP2K2 (human) = MAP2K2 (human) (UniProt P36507)
BLK (human) = BLK (human) (UniProt P51451)
MAP3K14 (human) = MAP3K14 (human) (UniProt Q99558)
EPHA7 (human) = EPHA7 (human) (UniProt Q15375)
EPHA1 (human) = EPHA1 (human) (UniProt P21709)
PLK1 (human) = PLK1 (human) (UniProt P53350)
PIM3 (human) = PIM3 (human) (UniProt Q86V86)
LYN (human) = LYN (human) (UniProt P07948)
FGFR4 (human) = FGFR4 (human) (UniProt P22455)
MAP3K2 (human) = MAP3K2 (human) (UniProt Q9Y2U5)
ALK (human) = ALK (human) (UniProt Q9UM73)
CAMKK1 (human) = CAMKK1 (human) (UniProt Q8N5S9)
RAF1 (human) = RAF1 (human) (UniProt P04049)
MAPK1 (human) = MAPK1 (human) (UniProt P28482)
GRK4 (human) = GRK4 (human) (UniProt P32298)
DSTYK (human) = DSTYK (human) (UniProt Q6XUX3)
PRKACA (human) = PRKACA (human) (UniProt P17612)
CDK1 CCNB1 (human) = CDK1 CCNB1 (human) (UniProt P06493+P14635)
DCLK2 (human) = DCLK2 (human) (UniProt Q8N568)
PHKG1 (human) = PHKG1 (human) (UniProt Q16816)
EPHB4 (human) = EPHB4 (human) (UniProt P54760)
CSF1R (human) = CSF1R (human) (UniProt P07333)
MAP3K11 (human) = MAP3K11 (human) (UniProt Q16584)
AKT1 (human) = AKT1 (human) (UniProt P31749)
MINK1 (human) = MINK1 (human) (UniProt Q8N4C8)
MAPK9 (human) = MAPK9 (human) (UniProt P45984)

Chain of LYN (human) (P07948 whole entry, looked up): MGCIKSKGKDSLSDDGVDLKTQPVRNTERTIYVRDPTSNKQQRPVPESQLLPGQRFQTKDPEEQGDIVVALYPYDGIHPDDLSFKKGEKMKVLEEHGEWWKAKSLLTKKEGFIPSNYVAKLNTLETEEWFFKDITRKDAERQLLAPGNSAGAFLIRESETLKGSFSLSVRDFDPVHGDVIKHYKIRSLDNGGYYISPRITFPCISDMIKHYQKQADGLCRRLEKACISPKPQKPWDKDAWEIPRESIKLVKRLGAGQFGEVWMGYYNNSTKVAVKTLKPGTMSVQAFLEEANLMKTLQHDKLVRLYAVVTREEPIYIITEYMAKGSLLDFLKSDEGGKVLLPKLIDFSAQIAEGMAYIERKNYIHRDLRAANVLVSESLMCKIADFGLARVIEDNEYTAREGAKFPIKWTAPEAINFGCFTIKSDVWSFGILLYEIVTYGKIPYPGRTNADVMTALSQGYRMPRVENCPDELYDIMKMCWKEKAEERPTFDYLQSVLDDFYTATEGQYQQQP
Chain of DSTYK (human) (Q6XUX3 whole entry, looked up): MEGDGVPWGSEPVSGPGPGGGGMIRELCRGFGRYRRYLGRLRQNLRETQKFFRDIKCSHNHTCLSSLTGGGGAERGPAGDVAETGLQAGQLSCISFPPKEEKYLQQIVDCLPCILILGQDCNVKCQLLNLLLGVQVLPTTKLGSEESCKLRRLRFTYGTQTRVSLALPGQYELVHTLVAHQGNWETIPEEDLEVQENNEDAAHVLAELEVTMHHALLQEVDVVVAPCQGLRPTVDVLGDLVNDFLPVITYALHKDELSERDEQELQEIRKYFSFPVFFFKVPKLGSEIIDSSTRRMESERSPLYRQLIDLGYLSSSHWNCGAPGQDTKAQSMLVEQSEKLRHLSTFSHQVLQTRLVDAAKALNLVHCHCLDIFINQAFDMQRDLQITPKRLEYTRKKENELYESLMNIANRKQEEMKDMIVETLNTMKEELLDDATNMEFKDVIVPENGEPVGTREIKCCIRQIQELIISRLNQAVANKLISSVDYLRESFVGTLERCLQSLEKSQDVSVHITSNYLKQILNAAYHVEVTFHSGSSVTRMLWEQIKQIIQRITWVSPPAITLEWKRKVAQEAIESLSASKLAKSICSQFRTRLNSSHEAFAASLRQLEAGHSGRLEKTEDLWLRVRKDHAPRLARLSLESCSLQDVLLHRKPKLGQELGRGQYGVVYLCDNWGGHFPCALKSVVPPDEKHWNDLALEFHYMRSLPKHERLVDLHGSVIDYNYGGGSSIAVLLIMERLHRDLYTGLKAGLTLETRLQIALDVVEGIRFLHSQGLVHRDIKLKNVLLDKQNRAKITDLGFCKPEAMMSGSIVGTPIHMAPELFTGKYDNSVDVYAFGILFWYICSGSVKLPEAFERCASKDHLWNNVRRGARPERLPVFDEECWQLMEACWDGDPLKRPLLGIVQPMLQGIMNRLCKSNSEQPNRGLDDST
Chain of EPHB3 (human) (P54753 whole entry, looked up): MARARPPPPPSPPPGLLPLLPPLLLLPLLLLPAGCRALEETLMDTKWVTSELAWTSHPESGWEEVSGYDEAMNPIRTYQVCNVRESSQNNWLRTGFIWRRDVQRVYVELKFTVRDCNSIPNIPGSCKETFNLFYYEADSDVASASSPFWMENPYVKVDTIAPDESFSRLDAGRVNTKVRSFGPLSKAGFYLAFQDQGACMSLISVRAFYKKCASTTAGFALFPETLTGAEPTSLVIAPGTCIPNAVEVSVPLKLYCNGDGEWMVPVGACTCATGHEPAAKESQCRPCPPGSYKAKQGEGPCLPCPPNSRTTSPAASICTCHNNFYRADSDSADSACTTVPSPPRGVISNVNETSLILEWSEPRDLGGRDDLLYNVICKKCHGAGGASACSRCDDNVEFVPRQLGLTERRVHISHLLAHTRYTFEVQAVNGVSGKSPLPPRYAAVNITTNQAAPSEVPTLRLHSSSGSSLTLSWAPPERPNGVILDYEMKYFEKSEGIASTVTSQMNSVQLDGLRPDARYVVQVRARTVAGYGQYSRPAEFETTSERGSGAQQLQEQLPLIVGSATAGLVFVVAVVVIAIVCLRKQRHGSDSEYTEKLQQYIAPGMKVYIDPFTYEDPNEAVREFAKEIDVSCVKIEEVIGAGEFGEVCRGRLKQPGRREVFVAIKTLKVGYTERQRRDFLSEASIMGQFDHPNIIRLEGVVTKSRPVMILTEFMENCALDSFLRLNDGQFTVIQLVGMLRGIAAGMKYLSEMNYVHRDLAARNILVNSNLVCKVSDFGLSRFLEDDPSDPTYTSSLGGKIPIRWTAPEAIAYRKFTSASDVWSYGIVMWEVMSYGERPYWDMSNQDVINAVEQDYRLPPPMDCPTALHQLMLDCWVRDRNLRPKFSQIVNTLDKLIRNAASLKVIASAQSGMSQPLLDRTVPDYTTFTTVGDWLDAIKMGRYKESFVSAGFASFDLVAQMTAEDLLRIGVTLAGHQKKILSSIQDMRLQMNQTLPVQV
Chain of EPHB4 (human) (P54760 whole entry, looked up): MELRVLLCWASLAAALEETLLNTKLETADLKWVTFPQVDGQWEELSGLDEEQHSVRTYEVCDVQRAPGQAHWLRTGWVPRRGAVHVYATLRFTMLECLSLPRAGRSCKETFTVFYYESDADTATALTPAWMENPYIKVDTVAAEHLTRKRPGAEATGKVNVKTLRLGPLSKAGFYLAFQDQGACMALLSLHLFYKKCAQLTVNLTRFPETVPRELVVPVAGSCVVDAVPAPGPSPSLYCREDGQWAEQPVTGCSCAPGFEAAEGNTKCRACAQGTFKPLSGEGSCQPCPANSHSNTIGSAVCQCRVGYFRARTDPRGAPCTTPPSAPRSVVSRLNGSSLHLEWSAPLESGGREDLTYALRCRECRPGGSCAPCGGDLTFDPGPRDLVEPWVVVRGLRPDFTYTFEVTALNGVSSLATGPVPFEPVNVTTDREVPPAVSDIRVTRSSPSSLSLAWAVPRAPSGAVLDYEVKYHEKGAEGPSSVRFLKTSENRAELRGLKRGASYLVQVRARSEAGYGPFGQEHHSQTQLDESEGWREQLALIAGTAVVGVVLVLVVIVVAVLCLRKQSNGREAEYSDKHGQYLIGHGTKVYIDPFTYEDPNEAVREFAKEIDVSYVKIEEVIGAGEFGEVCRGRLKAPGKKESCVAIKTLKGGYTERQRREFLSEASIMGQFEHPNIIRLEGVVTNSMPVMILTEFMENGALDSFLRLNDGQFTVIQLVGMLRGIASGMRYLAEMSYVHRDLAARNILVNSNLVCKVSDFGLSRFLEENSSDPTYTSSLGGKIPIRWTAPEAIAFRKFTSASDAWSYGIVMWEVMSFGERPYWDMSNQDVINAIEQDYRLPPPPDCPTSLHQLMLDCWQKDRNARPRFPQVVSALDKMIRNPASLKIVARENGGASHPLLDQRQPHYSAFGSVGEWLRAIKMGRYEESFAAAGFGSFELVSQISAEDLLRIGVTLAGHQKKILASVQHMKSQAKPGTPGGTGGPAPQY
Chain of RAF1 (human) (P04049 whole entry, looked up): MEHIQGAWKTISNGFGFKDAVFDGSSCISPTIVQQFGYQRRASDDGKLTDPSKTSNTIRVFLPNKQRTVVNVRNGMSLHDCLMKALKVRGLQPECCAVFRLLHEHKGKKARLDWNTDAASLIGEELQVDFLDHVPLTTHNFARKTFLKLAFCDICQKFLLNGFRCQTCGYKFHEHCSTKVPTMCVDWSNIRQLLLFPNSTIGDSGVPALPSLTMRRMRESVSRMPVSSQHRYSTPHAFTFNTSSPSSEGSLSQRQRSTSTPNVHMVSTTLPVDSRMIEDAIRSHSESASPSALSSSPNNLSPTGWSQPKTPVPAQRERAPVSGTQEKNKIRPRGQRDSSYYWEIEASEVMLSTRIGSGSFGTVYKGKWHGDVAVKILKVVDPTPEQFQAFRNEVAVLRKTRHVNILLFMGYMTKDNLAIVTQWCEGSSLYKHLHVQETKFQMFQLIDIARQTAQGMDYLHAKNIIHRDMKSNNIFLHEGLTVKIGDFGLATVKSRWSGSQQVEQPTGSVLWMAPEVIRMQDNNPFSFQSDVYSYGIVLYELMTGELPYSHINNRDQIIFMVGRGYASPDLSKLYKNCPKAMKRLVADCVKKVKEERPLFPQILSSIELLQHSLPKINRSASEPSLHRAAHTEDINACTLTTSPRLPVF
Chain of CSF1R (human) (P07333 whole entry, looked up): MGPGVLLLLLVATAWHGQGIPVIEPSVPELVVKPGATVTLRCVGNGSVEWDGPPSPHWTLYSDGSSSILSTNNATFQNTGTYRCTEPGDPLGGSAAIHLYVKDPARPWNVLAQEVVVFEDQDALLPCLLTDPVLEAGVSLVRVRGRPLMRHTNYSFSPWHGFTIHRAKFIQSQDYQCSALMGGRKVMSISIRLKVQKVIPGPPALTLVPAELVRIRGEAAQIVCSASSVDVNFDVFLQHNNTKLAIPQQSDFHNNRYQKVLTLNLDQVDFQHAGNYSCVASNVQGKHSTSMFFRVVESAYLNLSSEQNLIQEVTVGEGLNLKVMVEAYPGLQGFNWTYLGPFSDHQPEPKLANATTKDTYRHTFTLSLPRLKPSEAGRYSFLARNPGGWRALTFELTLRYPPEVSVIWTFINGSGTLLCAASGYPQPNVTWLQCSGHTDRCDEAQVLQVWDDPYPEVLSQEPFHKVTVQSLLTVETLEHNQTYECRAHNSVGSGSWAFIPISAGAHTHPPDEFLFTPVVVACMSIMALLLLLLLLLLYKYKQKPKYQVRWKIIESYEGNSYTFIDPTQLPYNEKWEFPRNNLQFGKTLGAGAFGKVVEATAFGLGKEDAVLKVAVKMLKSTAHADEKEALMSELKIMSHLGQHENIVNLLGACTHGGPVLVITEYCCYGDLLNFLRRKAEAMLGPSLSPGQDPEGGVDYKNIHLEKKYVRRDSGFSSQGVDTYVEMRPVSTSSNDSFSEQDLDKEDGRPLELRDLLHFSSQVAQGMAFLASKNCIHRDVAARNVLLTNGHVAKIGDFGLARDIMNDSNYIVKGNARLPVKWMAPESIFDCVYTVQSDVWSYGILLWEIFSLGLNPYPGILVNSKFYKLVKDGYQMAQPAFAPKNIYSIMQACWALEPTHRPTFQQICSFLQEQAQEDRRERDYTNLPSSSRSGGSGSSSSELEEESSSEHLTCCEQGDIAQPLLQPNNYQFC

Work on `N/C(=N\N=C/c1ccc(-c2cccc([N+](=O)[O-])c2)o1)N[N+](=O)[O-]` yielded a residual activity (SIK2 (human)) of 91.6%, a residual activity (TAOK1 (human)) of 89.6% and a residual activity (MARK4 (human)) of 87.6%. For the same compound, the residual activity (BRSK1 (human)) was 97.2%, the residual activity (HIPK1 (human)) was 81.1% and the residual activity (PIM1 (human)) was 92.9%. For the same compound, the residual activity (OXSR1 (human)) was 102%, the residual activity (MAP2K1 (human)) was 105% and the residual activity (NEK6 (human)) was 93.4%. It also gave a residual activity (CDK5 CDK5R1 p25 (human)) of 96.5%, a residual activity (SGK2 (human)) of 101% and a residual activity (PTK2B (human)) of 91.5%. It also gave a residual activity (ITK (human)) of 99.5%, a residual activity (EPHB3 (human)) of 91.7% and a residual activity (ACVRL1 (human)) of 106%. For the same compound, the residual activity (CAMKK2 (human)) was 114%, the residual activity (MAP2K2 (human)) was 78.2% and the residual activity (BLK (human)) was 102%. It also gave a residual activity (MAP3K14 (human)) of 77.9%, a residual activity (EPHA7 (human)) of 97.9% and a residual activity (EPHA1 (human)) of 88.9%. The residual activity (PLK1 (human)) was 98.6%, the residual activity (PIM3 (human)) was 114% and the residual activity (LYN (human)) was 96.3% and 99.4%. It also gave a residual activity (FGFR4 (human)) of 106%, a residual activity (MAP3K2 (human)) of 97% and a residual activity (ALK (human)) of 93.6%. For the same compound, the residual activity (CAMKK1 (human)) was 106%, the residual activity (RAF1 (human)) was 98.1% and the residual activity (MAPK1 (human)) was 99.7%. It also gave a residual activity (GRK4 (human)) of 95.5%, a residual activity (DSTYK (human)) of 95.4% and a residual activity (PRKACA (human)) of 93.3%. For the same compound, the residual activity (CDK1 CCNB1 (human)) was 87.9%, the residual activity (DCLK2 (human)) was 101% and the residual activity (PHKG1 (human)) was 101%. The residual activity (EPHB4 (human)) was 91.6%, the residual activity (CSF1R (human)) was 94.5% and the residual activity (MAP3K11 (human)) was 99.4%. For the same compound, the residual activity (AKT1 (human)) was 99.7%, the residual activity (MINK1 (human)) was 84.1% and the residual activity (MAPK9 (human)) was 111%.

In the case of `COc1cc2ncnc(Nc3ccc(O)c(Br)c3)c2cc1OC`, the residual activity (SIK2 (human)) is reported as 92.2%, the residual activity (TAOK1 (human)) is reported as 93.3% and the residual activity (MARK4 (human)) is reported as 92.4%. The residual activity (BRSK1 (human)) was 81.6%, the residual activity (HIPK1 (human)) was 104% and the residual activity (PIM1 (human)) was 75.5%. It also gave a residual activity (OXSR1 (human)) of 98.8%, a residual activity (MAP2K1 (human)) of 98.2% and a residual activity (NEK6 (human)) of 100%. For the same compound, the residual activity (CDK5 CDK5R1 p25 (human)) was 98.4%, the residual activity (SGK2 (human)) was 95.1% and the residual activity (PTK2B (human)) was 86.9%. The residual activity (ITK (human)) was 92.8%, the residual activity (EPHB3 (human)) was 88.1% and the residual activity (ACVRL1 (human)) was 102%. It also gave a residual activity (CAMKK2 (human)) of 92.4%, a residual activity (MAP2K2 (human)) of 86.2% and a residual activity (BLK (human)) of 83.8%. It also gave a residual activity (MAP3K14 (human)) of 82.6%, a residual activity (EPHA7 (human)) of 46.1% and a residual activity (EPHA1 (human)) of 80.4%. The residual activity (PLK1 (human)) was 98.8%, the residual activity (PIM3 (human)) was 73.3% and the residual activity (LYN (human)) was 40.3% and 60%. It also gave a residual activity (FGFR4 (human)) of 103%, a residual activity (MAP3K2 (human)) of 92.4% and a residual activity (ALK (human)) of 12.5%. The residual activity (CAMKK1 (human)) was 95.8%, the residual activity (RAF1 (human)) was 92.1% and the residual activity (MAPK1 (human)) was 102%. The residual activity (GRK4 (human)) was 105%, the residual activity (DSTYK (human)) was 106% and the residual activity (PRKACA (human)) was 97.7%. It also gave a residual activity (CDK1 CCNB1 (human)) of 81.3%, a residual activity (DCLK2 (human)) of 101% and a residual activity (PHKG1 (human)) of 71.9%. The residual activity (EPHB4 (human)) was 52.2%, the residual activity (CSF1R (human)) was 95.3% and the residual activity (MAP3K11 (human)) was 83.7%. For the same compound, the residual activity (AKT1 (human)) was 94%, the residual activity (MINK1 (human)) was 64.4% and the residual activity (MAPK9 (human)) was 88.4%.
